From patent publication US5631247A, “Compounds and compositions with nitrogen-containing non-basic side chains” (Eli Lilly and Company, priority 1996, dated 1997)
“And” between values parts separate entries of the source, which are not always exact repeats. Equal values may be shown once.

Columns and labels:
eosinophil peroxidase = test: Uterine eosinophil peroxidase (EPO) assay in ovariectomized rats (four day dosing); type: in vivo, female Sprague Dawley rats; design: Uterine EPO (Vmax): unit not given here; conditions: oral, daily for 4 days, OVX rats
Method: (§1) In the examples illustrating the methods, a post-menopausal model was used in which effects of different treatments upon various biological parameters were determined, including serum cholesterol concentration, uterine weight, eosinophil peroxidase activity, MCF-7 cell proliferation, and bone density.
(§2) Animals were dosed daily for 4 days. […] A blood sample was collected by cardiac puncture.
(§3) The data presented in Table 1 reflect the response of 5 to 6 rats per treatment.

uterus = test: Wet uterine weight in ovariectomized rats (four day dosing); type: in vivo, female Sprague Dawley rats; conditions: Rattus norvegicus, po, 96 h, daily for 4 days, increase vs OVX control, read-out: Uterine Weight (% inc. OVX)
Method: as §1, §2
(§4) Data presented in Table 1 below show comparative results among control ovariectomized rats, rats treated with EE2, and rats treated with certain compounds of the present invention. […] This uterine response to estrogen is well recognized in the art.
as §3

[1] = test system: MCF-7 breast adenocarcinoma cells; test: MCF-7 proliferation assay (tritiated thymidine); type: cell-based; conditions: Homo sapiens, MCF7, 48 hours with drug, read-out: ED50 (the source's name)
Method: MCF-7 breast adenocarcinoma cells (ATCC HTB 22) were maintained in MEM (minimal essential medium, phenol red-free, Sigma, St. Louis, Mo.) supplemented with 10% fetal bovine serum (FBS) (V/V), L-glutamine (2 mM), sodium pyruvate (1 mM), HEPES {(N-[2-hydroxyethyl]piperazine-N'-[2-ethanesulfonic acid]10 mM}, non-essential amino acids and bovine insulin (1 μg/ml) (maintenance medium). Ten days prior to assay, MCF-7 cells were switched to maintenance medium supplemented with 10% dextrancoated charcoal stripped fetal bovine serum (DCC-FBS) assay medium) in place of 10% FBS to deplete internal stores of steroids. MCF-7 cells were removed from maintenance flasks using cell dissociation medium (Ca++/Mg++ free HBSS (phenol red-free) supplemented with 10 mM HEPES and 2 mM EDTA). Cells were washed twice with assay medium and adjusted to 80,000 cells/mi. Approximately […] (8,000 cells) were added to flat-bottom microculture wells (Costar 3596) and incubated at 37° C. in a 5% CO2 humidified incubator for 48 hours to allow for cell adherence and equilibration after transfer. Serial dilutions of drugs or DMSO as a diluent control were prepared in assay medium and […] to triplicate microcultures followed by 50 ml assay medium for a final volume of […]. After an additional 48 hours at 37° C. in a 5% CO2 humidified incubator, microcultures were pulsed with tritiated thymidine (1 uCi/well) for 4 hours. Cultures were terminated by freezing at -70° C. for 24 hours followed by thawing and harvesting of microcultures. Samples were counted by liquid scintillation. Results in Table 3 below show the ED50 for certain compounds of the present invention.

serum cholesterol = test: Serum cholesterol in ovariectomized rats (post-menopausal rat model, four day dosing); type: in vivo, female Sprague Dawley rats; conditions: oral, daily for 4 days, decrease vs OVX control
Method: as §1, §2
Blood samples were allowed to clot at room temperature for 2 hours, and serum was obtained following centrifugation for 10 minutes at 3000 rpm. Serum cholesterol was determined using a Boshringer Mannheim Diagnostics high performance cholesterol assay. Briefly the cholesterol was oxidized to cholest-4-en-3-one and hydrogen peroxide. The hydrogen peroxide was then reacted with phenol and 4-aminophenazone in the presence of peroxidase to produce a p-quinone imine dye, which was read spectrophotemetrically at 500 nm. Cholesterol concentration was then calculated against a standard curve. The entire assay was automated using a Biomek Automated Workstation.
as §4, §3

| Structure (SMILES) | IC50 [1] [nM] | Uterine EPO (Vmax) (eosinophil peroxidase; 0.1 mg/kg) | Uterine EPO (Vmax) (eosinophil peroxidase; 1 mg/kg) | Uterine EPO (Vmax) (eosinophil peroxidase; 10 mg/kg) | change in vivo at 0.1 mg/kg (uterus) [%] | change in vivo at 1 mg/kg (uterus) [%] | change in vivo at 10 mg/kg (uterus) [%] | Serum Cholesterol (% dec. OVX) (serum cholesterol; 1 mg/kg) | Serum Cholesterol (% dec. OVX) (serum cholesterol; 10 mg/kg) [%] | Uterine EPO (Vmax) (eosinophil peroxidase; 0.01 mg/kg) | change in vivo at 0.01 mg/kg (uterus; 0.01 mg/kg) [%] |
| --- | --- | --- | --- | --- | --- | --- | --- | --- | --- | --- | --- |
| O=C(c1ccc(OCCN2CCCCC2=O)cc1)c1c(-c2ccc(O)cc2)sc2cc(O)ccc12 [Compound 3] | 600 | 8.0 | 7.8 | 8.9 | 13.3 | 17.8 | 57.6 |  |  |  |  |
| O=C(c1ccc(OCCN2CCCC2=O)cc1)c1c(-c2ccc(O)cc2)sc2cc(O)ccc12 [Compound 6] |  | 3.6 | 1.4 | 3.7 | -9 | 15.4 | 40.3 |  |  |  |  |
| COc1ccc(-c2sc3cc(OC)ccc3c2C(=O)c2ccc(OCC(=O)N3CCCCC3)cc2)cc1 [Compound 7] | > 1000 | 5.2 | 3.7 | 4.7 | -0.5 | -16.2 | 8.4 |  |  |  |  |
| O=C(c1ccc(OCC(=O)N2CCCC2)cc1)c1c(-c2ccc(O)cc2)sc2cc(O)ccc12 [Compound 8] | 10 |  |  |  |  |  |  | 69.6% and 39.4% | 64.5 | 3.5 | -22.9 |
| O=C(c1ccc(OCC(=O)N2CCCCC2)cc1)c1c(-c2ccc(O)cc2)sc2cc(O)ccc12 [Compound 9] | 10 | 2.8 | 3.6 | 32 | -10 | 6.5 | 51.7 |  |  |  |  |
| CN(C)C(=O)COc1ccc(C(=O)c2c(-c3ccc(O)cc3)sc3cc(O)ccc23)cc1 [Compound 12] |  | 3.7 | 6.7 | 122.3 | -7.7 | 15.4 | 60.7 |  |  |  |  |

Continued, in another order:

| IC50 [1] [nM] | Structure (SMILES) | Uterine EPO (Vmax) (eosinophil peroxidase; 0.1 mg/kg) | Uterine EPO (Vmax) (eosinophil peroxidase; 1 mg/kg) | Uterine EPO (Vmax) (eosinophil peroxidase; 10 mg/kg) | change in vivo at 0.1 mg/kg (uterus) [%] | change in vivo at 1 mg/kg (uterus) [%] | change in vivo at 10 mg/kg (uterus) [%] | Serum Cholesterol (% dec. OVX) (serum cholesterol; 1 mg/kg) | Serum Cholesterol (% dec. OVX) (serum cholesterol; 10 mg/kg) [%] | Uterine EPO (Vmax) (eosinophil peroxidase; 0.01 mg/kg) | change in vivo at 0.01 mg/kg (uterus; 0.01 mg/kg) [%] |
| --- | --- | --- | --- | --- | --- | --- | --- | --- | --- | --- | --- |
| 50 | CCCCN(C)C(=O)COc1ccc(C(=O)c2c(-c3ccc(O)cc3)sc3cc(O)ccc23)cc1 [Compound 10] | 4.3 | 3.1 | 17.0 | 1.5 | -6.7 | 38 |  |  |  |  |
| > 1000 | O=C(c1ccc(OCCN2C(=O)CCC2=O)cc1)c1c(-c2ccc(O)cc2)sc2cc(O)ccc12 [Compound 13] | 1.9 | 1.7 | 2.5 | 22.2 | 7.2 | -4 |  |  |  |  |
| 0.05 | N#CCOc1ccc(C(=O)c2c(-c3ccc(O)cc3)sc3cc(O)ccc23)cc1 [Compound 14] | 3.3 | 2.4 | 145.8 | 18.8 | 14.6 | 125 |  |  |  |  |
